Test results from ChEMBL document CHEMBL1201862, “PubChem BioAssay data set” (2004).
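Values below derive from 48-hour exposures of cells grown in 96-well plates, with endpoints linearly interpolated between the two concentrations bracketing the appropriate inhibition level. The concentration for 50% growth inhibition is given as GI50.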 Calls of active or inactive are those of the source. Rule as the data show it: active = GI50 up to about 1.1 µM and inactive = higher.

Assays:
Assay in all cases: NCI anticancer screen, dose series, 48 h
[1] = test system: 786-0
[2] = test system: A498
[3] = test system: A549
[4] = test system: ACHN
[5] = test system: HT-29
[6] = test system: M14
[7] = test system: MDA-MB-231
[8] = test system: MDA-MB-435
[9] = test system: Malme-3M
[10] = test system: NCI-H460
[11] = test system: NCI/ADR-RES
[12] = test system: RPMI-8226
[13] = test system: SK-MEL-5
[14] = test system: SK-OV-3
[15] = test system: SN12C
[16] = test system: SNB-75
[17] = test system: UACC-257
[18] = test system: OVCAR-5
[19] = test system: SK-MEL-2

Row | SMILES | GI50 [1] | GI50 [2] | GI50 [3] | GI50 [4] | GI50 [5] | GI50 [6] | GI50 [7] | GI50 [8] | GI50 [9] | GI50 [10] | GI50 [11] | GI50 [12] | GI50 [13] | GI50 [14] | GI50 [15] | GI50 [16] | GI50 [17] | GI50 [18] | GI50 [19]
1 | COc1cc(C2NCCC(c3ccccc3)(c3ccccc3)N2)cc(OC)c1OC (centres undefined) | 22.6 µM (inactive) | 18.7 µM (inactive) | 32.4 µM (inactive) | 61.2 µM (inactive) | 4.66 µM (inactive) | 11.7 µM (inactive) | 68.9 µM (inactive) | 18.5 µM (inactive) | 19.1 µM (inactive) | 9.59 µM (inactive) | > 100 µM (inactive) | 7.36 µM (inactive) | 17.3 µM (inactive) | 78 µM (inactive) | 59.3 µM (inactive) | 41.7 µM (inactive) | 18.2 µM (inactive) | – | –
2 | c1ccc2c3c(ccc2c1)CSCc1ccc2ccccc2c1-3 | > 100 µM (inactive) | > 100 µM (inactive) | > 100 µM (inactive) | > 100 µM (inactive) | > 100 µM (inactive) | > 100 µM (inactive) | > 100 µM (inactive) | > 100 µM (inactive) | > 100 µM (inactive) | – | > 100 µM (inactive) | > 100 µM (inactive) | > 100 µM (inactive) | – | > 100 µM (inactive) | > 100 µM (inactive) | 43.5 µM (inactive) | > 100 µM (inactive) | > 100 µM (inactive)
3 | CN1CCc2c(sc3nc(S)nc(S)c23)C1 | > 100 µM (inactive) | – | > 100 µM (inactive) | > 100 µM (inactive) | > 100 µM (inactive) | > 100 µM (inactive) | 39.5 µM (inactive) | > 100 µM (inactive) | > 100 µM (inactive) | > 100 µM (inactive) | > 100 µM (inactive) | > 100 µM (inactive) | > 100 µM (inactive) | > 100 µM (inactive) | > 100 µM (inactive) | > 100 µM (inactive) | > 100 µM (inactive) | > 100 µM (inactive) | > 100 µM (inactive)
4 | COc1ccc(OCc2ccc3nc(-c4ccccc4)c(Cl)nc3c2)cc1 | 10.6 µM (inactive) | 26.4 µM (inactive) | 40 µM (inactive) | 27.9 µM (inactive) | 76.7 µM (inactive) | 33.9 µM (inactive) | 11.7 µM (inactive) | 50.6 µM (inactive) | 12.9 µM (inactive) | 16.7 µM (inactive) | 40.3 µM (inactive) | 9.93 µM (inactive) | 6.89 µM (inactive) | – | 24.3 µM (inactive) | 36 µM (inactive) | > 100 µM (inactive) | 32.1 µM (inactive) | 26.9 µM (inactive)
5 | CS(C)(=O)=N/C=C\C(=O)C(Cl)(Cl)Cl | > 100 µM (inactive) | – | > 100 µM (inactive) | > 100 µM (inactive) | > 100 µM (inactive) | > 100 µM (inactive) | > 100 µM (inactive) | > 100 µM (inactive) | > 100 µM (inactive) | > 100 µM (inactive) | > 100 µM (inactive) | 83 µM (inactive) | > 100 µM (inactive) | > 100 µM (inactive) | > 100 µM (inactive) | > 100 µM (inactive) | > 100 µM (inactive) | > 100 µM (inactive) | 46.8 µM (inactive)
6 | O=C(NC(=S)Nc1ccc2c(c1)Sc1ccccc1O2)c1ccc([N+](=O)[O-])cc1 | > 100 µM (inactive) | – | > 100 µM (inactive) | > 100 µM (inactive) | > 100 µM (inactive) | > 100 µM (inactive) | > 100 µM (inactive) | > 100 µM (inactive) | > 100 µM (inactive) | > 100 µM (inactive) | > 100 µM (inactive) | > 100 µM (inactive) | > 100 µM (inactive) | > 100 µM (inactive) | > 100 µM (inactive) | > 100 µM (inactive) | > 100 µM (inactive) | > 100 µM (inactive) | > 100 µM (inactive)
7 | CN(C)c1nc(N)nc(CS)n1 | > 100 µM (inactive) | > 100 µM (inactive) | 51.3 µM (inactive) | > 100 µM (inactive) | > 100 µM (inactive) | > 100 µM (inactive) | 45.6 µM (inactive) | > 100 µM (inactive) | – | 46 µM (inactive) | > 100 µM (inactive) | 96.2 µM (inactive) | > 100 µM (inactive) | > 100 µM (inactive) | > 100 µM (inactive) | > 100 µM (inactive) | > 100 µM (inactive) | > 100 µM (inactive) | 36.2 µM (inactive)
8 | CC(=O)OC1CC2c3cccc4c3C(CC2N(C)C1=O)CN4C(=O)c1ccccc1 (centres undefined) | 15.2 µM (inactive) | 21.5 µM (inactive) | 17.5 µM (inactive) | 20 µM (inactive) | 17.9 µM (inactive) | 22.1 µM (inactive) | 12.6 µM (inactive) | 18.4 µM (inactive) | – | – | 20.6 µM (inactive) | 26.6 µM (inactive) | 14.4 µM (inactive) | 22.7 µM (inactive) | 18.8 µM (inactive) | – | 20.5 µM (inactive) | 32.4 µM (inactive) | 20.5 µM (inactive)
9 | OC(c1ccoc1)c1cc2ccccc2s1 (centres undefined) | > 10 µM (inactive) | – | > 10 µM (inactive) | > 10 µM (inactive) | > 10 µM (inactive) | > 10 µM (inactive) | > 10 µM (inactive) | > 10 µM (inactive) | – | > 10 µM (inactive) | > 10 µM (inactive) | > 10 µM (inactive) | > 10 µM (inactive) | > 10 µM (inactive) | > 10 µM (inactive) | > 10 µM (inactive) | > 10 µM (inactive) | > 10 µM (inactive) | > 10 µM (inactive)
10 | Oc1cnnc2nc3ccccc3n12 | > 100 µM (inactive) | > 100 µM (inactive) | > 100 µM (inactive) | > 100 µM (inactive) | > 100 µM (inactive) | > 100 µM (inactive) | > 100 µM (inactive) | > 100 µM (inactive) | > 100 µM (inactive) | > 100 µM (inactive) | > 100 µM (inactive) | – | > 100 µM (inactive) | – | > 100 µM (inactive) | > 100 µM (inactive) | > 100 µM (inactive) | > 100 µM (inactive) | > 100 µM (inactive)
11 | CCCC1=NC(C(F)(F)F)(C(F)(F)F)N=C(N2CCOCC2)O1 | > 100 µM (inactive) | – | > 100 µM (inactive) | – | > 100 µM (inactive) | > 100 µM (inactive) | > 100 µM (inactive) | > 100 µM (inactive) | > 100 µM (inactive) | – | > 100 µM (inactive) | > 100 µM (inactive) | > 100 µM (inactive) | > 100 µM (inactive) | > 100 µM (inactive) | > 100 µM (inactive) | > 100 µM (inactive) | > 100 µM (inactive) | > 100 µM (inactive)
12 | COc1ccc2[nH]cc(C=C3C(=O)NC(=S)NC3=O)c2c1 | 31.6 µM (inactive) | > 100 µM (inactive) | > 100 µM (inactive) | > 100 µM (inactive) | > 100 µM (inactive) | > 100 µM (inactive) | 48.6 µM (inactive) | > 100 µM (inactive) | > 100 µM (inactive) | > 100 µM (inactive) | > 100 µM (inactive) | – | > 100 µM (inactive) | 52.2 µM (inactive) | > 100 µM (inactive) | 23.1 µM (inactive) | > 100 µM (inactive) | > 100 µM (inactive) | 92.3 µM (inactive)
13 | CC(=O)OCC(C)C1=C(O)C(=O)C2(C)C/C=C(/C)CC/C=C(\C)CCC(O)C(C)CCC12 (centres undefined) | 16.9 µM (inactive) | 21.6 µM (inactive) | 18 µM (inactive) | 16.7 µM (inactive) | 17.3 µM (inactive) | 17.8 µM (inactive) | 16.3 µM (inactive) | 17.5 µM (inactive) | 17.4 µM (inactive) | 14.7 µM (inactive) | 21.1 µM (inactive) | 11.9 µM (inactive) | 17.7 µM (inactive) | – | 19 µM (inactive) | 16.2 µM (inactive) | 18.6 µM (inactive) | 17.3 µM (inactive) | 20.7 µM (inactive)
14 | Cc1ccc(NCC2CC/C(=C\c3ccc(Cl)cc3)C2=O)cc1 (centres undefined) | 4.12 µM (inactive) | 30.7 µM (inactive) | 49.4 µM (inactive) | 10.3 µM (inactive) | 12.4 µM (inactive) | 13.4 µM (inactive) | 11.4 µM (inactive) | 14.4 µM (inactive) | 18 µM (inactive) | 21.7 µM (inactive) | 33.7 µM (inactive) | 0.635 µM (active) | 14.5 µM (inactive) | > 100 µM (inactive) | 13.1 µM (inactive) | > 100 µM (inactive) | 17.4 µM (inactive) | 22 µM (inactive) | –
15 | C=C1C(C(=O)OC)[C@H]1C(=O)OC (some centres undefined) | > 100 µM (inactive) | > 100 µM (inactive) | > 100 µM (inactive) | > 100 µM (inactive) | > 100 µM (inactive) | > 100 µM (inactive) | > 100 µM (inactive) | > 100 µM (inactive) | – | > 100 µM (inactive) | > 100 µM (inactive) | > 100 µM (inactive) | > 100 µM (inactive) | > 100 µM (inactive) | > 100 µM (inactive) | > 100 µM (inactive) | > 100 µM (inactive) | > 100 µM (inactive) | > 100 µM (inactive)
16 | CCOC(=O)c1ncn(CCc2ccc(Cl)cc2)c1C | > 100 µM (inactive) | > 100 µM (inactive) | > 100 µM (inactive) | > 100 µM (inactive) | > 100 µM (inactive) | 26.3 µM (inactive) | > 100 µM (inactive) | > 100 µM (inactive) | > 100 µM (inactive) | > 100 µM (inactive) | 70.8 µM (inactive) | 62.7 µM (inactive) | 85.9 µM (inactive) | – | > 100 µM (inactive) | – | > 100 µM (inactive) | > 100 µM (inactive) | > 100 µM (inactive)
